# Results taken from PubChem BioAssay (NCI).
#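 Briefly, cells in 96-well plates were exposed to five compound concentrations for 48 h, and endpoints were estimated by linear interpolation. The concentration for 50% growth inhibition is given as GI50. The concentration for full growth arrest is given as TGI.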
# System: KM12 colon
# Assay: growth of human tumour cells (NCI), 48 h
Compound,TGI,GI50
CCOC(=O)CCC1(C(=O)OCC)CCCCC1=O (configuration not stated),> 100 µM,–
CCOC1Oc2ccccc2C(=O)/C1=C/Nc1ccc(C(C)=O)cc1 (configuration not stated),50.2 µM,19.1 µM
Cc1nc2c(ccc3ncccc32)[nH]1,> 100 µM,–
CCN1CCN(Cc2ccc(NC(=O)c3cccc(C#Cc4cccc5[nH]nc(N)c45)c3)cc2C(F)(F)F)CC1,1.33 µM,0.302 µM
Cc1cc(N(CCC#N)CCC#N)ccc1N=Nc1ccc(S(N)(=O)=O)cc1,> 100 µM,–
CC(C)=CCC\C(C)=C/C=C/C(C)=C\C=C\C(C)=C/C=C/C=C(C)\C=C\C=C(C)/C=C/C=C(/C)CCC=C(C)C,> 100 µM,–
CC(=O)[CH-]C(=O)c1ccccc1.CC(=O)[CH-]C(=O)c1ccccc1.CN(C)c1ccc([O-])cc1.CN(C)c1ccc([O-])cc1.Cl.[Ti+4],23.8 µM,13.2 µM
CC1(C)C(=O)/C=C\C(=O)C(C)(C)C2=CC=C(O2)C(C)(C)C(=O)/C=C\C(=O)C(C)(C)C2=CC=C1O2,> 100 µM,–
COC(=O)CC[N+]1=CCC(c2ccccc2)(c2ccccc2)O1,> 100 µM,–
CCN(CC)N=Nc1c(C(N)=O)n[nH]c1C,> 100 µM,–
OCC1=CC(NC2CC(CO)C(O)C(O)C2O)C(O)C(O)C1O (configuration not stated),> 100 µM,–
Cc1cc(NS(=O)(=O)c2ccc(Nc3c4ccccc4nc4c(C(=O)N5CCN(CCOS(C)(=O)=O)CC5)cccc34)cc2)no1,> 100 µM,–
NC1=NCCC1(c1ccccc1)c1ccccn1 (configuration not stated),> 100 µM,–
CC1CCc2nc[nH]c(=O)c21 (configuration not stated),> 100 µM,> 100 µM
CNC(=S)OCCC(C)CCCC(C)C (configuration not stated),27.8 µM,–
COC1/C=C/OC2(C)Oc3c(C)c(O)c4c(O)c(c(/C=N/Nc5ccc([N+](=O)[O-])cc5[N+](=O)[O-])c(O)c4c3C2=O)NC(=O)C(C)=C/C=C/C(C)C(O)C(C)C(O)C(C)C(OC(C)=O)C1C (configuration not stated),6.68 µM,1.71 µM
Cc1cnc(NCCCN(C)C)c2c1[nH]c1ccc3cc(O)ccc3c12,10 µM,–

# System: UACC-62 melanoma
# Assay: growth of human tumour cells (NCI), 48 h
Compound,GI50,TGI
Nc1nc(-n2c(-c3ccccc3)nc3c(Br)cc(Br)cc3c2=O)nnc1-c1cccc(Cl)c1Cl,7.08 µM,25.4 µM
Cc1c(C(=O)C/C(=N/NC(=O)c2ccccc2O)C(=O)Nc2ccccc2C(C)C)[n+](=O)c2ccccc2n1[O-],–,77.7 µM
CCCCCCCCCCCC(=O)OCCOCCOCCOCCOCCOCc1ccccc1,–,> 100 µM
CCCC1C(=O)CCc2c(OC)ccc(OC)c21 (configuration not stated),–,> 100 µM
O=C(CCc1nc(=S)[nH][nH]1)Nc1cc(Cl)c(Cl)cc1Cl,–,> 100 µM
COc1ccc(CC2c3cc4c(cc3CCN2C)OCO4)c(C=O)c1OC (configuration not stated),–,> 100 µM
O=C(Nc1nc2ccc([N+](=O)[O-])cc2s1)C(=O)C(C1OC(=O)c2ccccc21)[N+](=O)[O-] (configuration not stated),–,> 100 µM
Cc1cc(-c2nc(C(=O)Nc3cc4oc(N5CCOCC5)nc4nc3N3CC[C@@H](O)C3)co2)ccn1,57 µM,> 100 µM
COC(=O)C1(C(C)C)CCc2c(OC)ccc(OC)c2C1=O (configuration not stated),–,> 100 µM
Cc1ccc(Cl)c2c(N=Nc3ccccc3[N+](=O)[O-])c(O)[nH]c12,–,> 100 µM
FC(F)(F)c1cccc(Nc2nc(-c3ccccc3)nc3ncccc23)c1,5.84 µM,26.2 µM
COC(=O)c1ccccc1NC(=O)C(=O)Cc1nc2c3c(ccc2[nH]c1=O)C(=O)c1ccccc1C3=O,–,20.4 µM
O=C(CC(=O)c1cccc2ccccc12)C(=O)Nc1ccc(Cl)cc1,–,> 100 µM
C=CCO[C@H]1CO[C@H]2[C@@H]1OC[C@@H]2Oc1ccc(Nc2ccnc(Nc3ccc(O[C@H]4CO[C@H]5[C@@H]4OC[C@@H]5OCC=C)c(Cl)c3)n2)cc1Cl,1.81 µM,3.32 µM
OCc1cc2ccccc2c2c3c(ccc12)OCO3,21.5 µM,74.2 µM
CC1(C(=O)O)CCC[C@@]2(C)C1CC[C@@]1(C)c3cocc3CCC21 (some centres not stated),–,> 100 µM
CCn1c(C)nn2c(=O)c3ccccc3nc2c1=O,–,> 100 µM
COc1cnc2c(c1)C(=O)c1c-2n(CCCN2CCOCC2)c(=O)c2cc(F)ccc12,0.235 µM,0.926 µM
CCOC1Oc2ccccc2C(=O)/C1=C/Nc1ccc(C(C)=O)cc1 (configuration not stated),17.5 µM,42 µM
Cc1nc2c(ccc3ncccc32)[nH]1,–,> 100 µM
CCN1CCN(Cc2ccc(NC(=O)c3cccc(C#Cc4cccc5[nH]nc(N)c45)c3)cc2C(F)(F)F)CC1,0.509 µM,1.77 µM
Cc1cc(N(CCC#N)CCC#N)ccc1N=Nc1ccc(S(N)(=O)=O)cc1,–,> 100 µM
